Drawing on patent US20230131025A1, “QUINOLYL PHOSPHINE OXIDE COMPOUND, AND COMPOSITION AND APPLICATION THEREOF” (Betta Pharmaceuticals Co., Ltd., priority 2020, published 2023), this text covers IC50 and GI50 for 16 compounds.

Some results are limits rather than exact numbers.

Experiment in all cases: Cell proliferation experiment (CellTiter Glo, 72 hours)
What all share (assay type): cell-based
(In ATP-based viability assays light output follows the ATP content of the culture.)

Experiment [1] deals with human epidermal cancer cells A431 carrying EGFR WT. The following applies: Homo sapiens, A-431. The method, then: (§1) Experiment 2 Cell Proliferation Experiment
Adherent cells: human epidermal cancer cells A431 carrying EGFR WT.
(§2) RPMI 1640 with 10% FBS and 1% Penicillin-Streptomycin, or DMEM with 10% FBS and 1% Penicillin-Streptomycin.
(§3) a) Diluting compounds being tested (20 mM stock solutions), as an initial concentration, to 10 mM with 100% DMSO, followed by diluting compounds serially in a 3-fold gradient such that each compound is diluted into 12 concentrations (Cat #P-05525, Labcyte).
(§4) b) Diluting the above compound solutions for 100-fold with culture medium to prepare 10-fold working solution.
(§5) b) Seeding cells into 96-well cell culture plate at a density of 2000 or 3000 cells/well, with 135 μL/well.
(§6) a) Adding the compound prepared in step 2 to the cell plate at 15 μL per well, resulting in a final maximum concentration of 10000 nM or 1111 nM. The compounds is diluted serially in a 3-fold gradient such that each compound is diluted into 9 concentrations, wherein the final concentration of DMSO is 0.1%. Blank control wells are added with medium (0.1% DMSO).
(§7) b) Re-incubating the cells in an incubator for 72 hours. 5. Detection
(§8) a) Adding 50 μL of CTG reagent (CellTiter Glo kit, promega, Cat #G7573) to the 96-well cell culture plate.
(§9) b) Shaking the plate for 2 minutes and reacting at room temperature for 10 minutes.
(§10) c) Reading the luminescence signal value (Lum) using PerkinElmer reader.
(§11) The cell survival inhibition rate of each well was calculated. The data was analyzed by GraphPad Prism 6.0 software. The dose-response curve was obtained by fitting the data with a nonlinear regression equation. The IC50 of each compound was calculated as follows:
(§12) Cell survival inhibition rate (%)=(1−(Lumcompound tested−Lummedium control)/(Lumcell control−Lummedium control))×100%
(§13) Y=Min+(Max−Min)/(1+10^((Log IC50−X)*Slope));
(§14) X: logarithm of compound concentration. Y: cell survival inhibition rate.

Experiment [2] concerns the target Ba/F3-Δ19del/T790M/C797S (Homo sapiens, UniProt P00533, T790M/C797S, cells depend on it, form not given). Conditions: read-out: Ba/F3/EGFR Δ19del/T790M/C797S IC50. On the procedure: as §1
(§15) Suspension cells: Ba/F3 cells with stable overexpression of Δ19del/T790M/C797S mutant gene, named Ba/F3-Δ19del/T790M/C797S; Ba/F3 cells with overexpression of EGFR WT, named Ba/F3 EGFR WT.
as §2, §3, §4, §5, §6, §7, §8, §9, §10, §11, §12, §13, §14

The target in experiment [3] is Ba/F3 EGFR WT (Homo sapiens, UniProt P00533). The following applies: read-out: BaF3 EGFR WT IC50. The method, then:
as §1, §15, §2, §3, §4, §5, §6, §7, §8, §9, §10, §11, §12, §13, §14

Chain of Ba/F3-Δ19del/T790M/C797S (P00533 with tags, fused parts or gaps DEL746-750/T790M/C797S, form open): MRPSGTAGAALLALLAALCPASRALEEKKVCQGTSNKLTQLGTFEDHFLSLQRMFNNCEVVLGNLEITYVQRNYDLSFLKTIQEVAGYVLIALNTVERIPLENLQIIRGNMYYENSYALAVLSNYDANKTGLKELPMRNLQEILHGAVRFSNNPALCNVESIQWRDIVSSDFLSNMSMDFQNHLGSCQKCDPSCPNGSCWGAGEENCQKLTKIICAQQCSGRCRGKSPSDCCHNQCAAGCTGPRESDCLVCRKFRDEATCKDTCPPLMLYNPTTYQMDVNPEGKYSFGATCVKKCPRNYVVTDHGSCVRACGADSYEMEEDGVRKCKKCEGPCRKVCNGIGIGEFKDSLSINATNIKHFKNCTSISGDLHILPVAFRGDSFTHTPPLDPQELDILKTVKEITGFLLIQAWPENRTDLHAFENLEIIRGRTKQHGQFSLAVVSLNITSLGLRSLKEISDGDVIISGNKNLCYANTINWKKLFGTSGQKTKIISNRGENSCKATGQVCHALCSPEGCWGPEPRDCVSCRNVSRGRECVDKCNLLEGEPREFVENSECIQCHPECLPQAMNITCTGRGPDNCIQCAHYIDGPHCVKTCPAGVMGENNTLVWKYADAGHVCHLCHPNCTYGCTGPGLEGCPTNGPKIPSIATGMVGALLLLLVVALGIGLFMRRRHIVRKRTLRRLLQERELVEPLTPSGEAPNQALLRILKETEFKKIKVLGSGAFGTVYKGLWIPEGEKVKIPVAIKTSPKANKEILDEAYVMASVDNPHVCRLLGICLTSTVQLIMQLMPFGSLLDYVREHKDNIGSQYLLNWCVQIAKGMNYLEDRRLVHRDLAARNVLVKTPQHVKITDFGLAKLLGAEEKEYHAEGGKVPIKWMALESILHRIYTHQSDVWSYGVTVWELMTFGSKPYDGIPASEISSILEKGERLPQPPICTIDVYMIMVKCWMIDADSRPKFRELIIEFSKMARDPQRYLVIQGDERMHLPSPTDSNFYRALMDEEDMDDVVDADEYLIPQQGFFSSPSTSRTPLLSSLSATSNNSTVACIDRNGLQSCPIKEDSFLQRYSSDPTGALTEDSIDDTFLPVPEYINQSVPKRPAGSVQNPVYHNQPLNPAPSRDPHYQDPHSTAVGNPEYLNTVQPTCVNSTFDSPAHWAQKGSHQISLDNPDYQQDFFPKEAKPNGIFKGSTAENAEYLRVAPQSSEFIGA
Chain of Ba/F3 EGFR WT (P00533 whole entry, change not shown): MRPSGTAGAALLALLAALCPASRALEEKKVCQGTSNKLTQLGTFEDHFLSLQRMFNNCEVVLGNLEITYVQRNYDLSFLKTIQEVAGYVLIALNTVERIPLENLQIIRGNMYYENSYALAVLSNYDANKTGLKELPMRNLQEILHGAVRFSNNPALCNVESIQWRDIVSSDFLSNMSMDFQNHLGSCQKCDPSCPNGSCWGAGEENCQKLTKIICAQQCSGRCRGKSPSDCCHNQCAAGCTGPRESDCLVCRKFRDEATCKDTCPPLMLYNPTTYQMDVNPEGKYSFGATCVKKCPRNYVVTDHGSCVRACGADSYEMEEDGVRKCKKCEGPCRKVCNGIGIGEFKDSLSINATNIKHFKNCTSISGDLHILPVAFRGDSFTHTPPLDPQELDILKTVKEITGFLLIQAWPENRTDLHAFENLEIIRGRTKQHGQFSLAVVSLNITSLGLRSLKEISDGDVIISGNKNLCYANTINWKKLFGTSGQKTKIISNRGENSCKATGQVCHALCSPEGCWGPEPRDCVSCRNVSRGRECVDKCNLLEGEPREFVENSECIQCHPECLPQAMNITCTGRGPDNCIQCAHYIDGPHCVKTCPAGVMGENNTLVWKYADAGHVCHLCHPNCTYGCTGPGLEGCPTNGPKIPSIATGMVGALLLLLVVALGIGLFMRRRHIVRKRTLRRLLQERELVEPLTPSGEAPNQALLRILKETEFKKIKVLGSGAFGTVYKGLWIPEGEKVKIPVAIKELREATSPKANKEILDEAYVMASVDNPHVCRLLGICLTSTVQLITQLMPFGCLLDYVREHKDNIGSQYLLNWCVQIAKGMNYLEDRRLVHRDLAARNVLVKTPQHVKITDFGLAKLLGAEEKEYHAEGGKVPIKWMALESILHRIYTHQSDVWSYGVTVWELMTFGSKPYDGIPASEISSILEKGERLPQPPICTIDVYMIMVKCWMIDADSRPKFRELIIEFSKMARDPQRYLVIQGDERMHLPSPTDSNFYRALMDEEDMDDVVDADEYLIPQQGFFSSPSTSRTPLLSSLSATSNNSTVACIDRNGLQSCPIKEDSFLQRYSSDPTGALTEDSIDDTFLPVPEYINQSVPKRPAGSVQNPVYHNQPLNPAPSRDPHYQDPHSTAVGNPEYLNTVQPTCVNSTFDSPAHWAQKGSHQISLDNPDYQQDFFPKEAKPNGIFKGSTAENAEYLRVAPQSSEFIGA

The IC50 is the point on the concentration scale where inhibition reaches its midpoint. A lower IC50 goes with greater potency. Compound `COc1cc(N(C)CCN(C)C)c(-c2cnn(C)c2)cc1Nc1ncc(Br)c(Nc2ccc3nc(C4CC4)ccc3c2P(C)(C)=O)n1` [Compound J-062, (6-((5-Bromo-2-((4-((2-(dimethylamino)ethyl)(methyl)amino)-2-methoxy-5-(1-methyl-1H-pyrazol-4-yl)phenyl)amino)pyrimidin-4-yl)amino)-2-cyclopropylquinolin-5-yl)dimethylphosphine oxide] returned an IC50 in experiment [1] of 157 nM. Moreover, the figures for the GI50 in experiment [2] and in experiment [3] were 1.4 nM and 46.2 nM, respectively.

The compound `COc1cc(N2CCN(c3ccncc3)CC2)c(-c2cnn(C)c2)cc1Nc1ncc(Br)c(Nc2ccc3nc(C4CC4)ccc3c2P(C)(C)=O)n1` [Compound J-057, (6-((5-Bromo-2-((2-methoxy-5-(1-methyl-1H-pyrazol-4-yl)-4-(4-(pyridin-4-yl)piperazin-1-yl)phenyl)amino)pyrimidin-4-yl)amino)-2-cyclopropylquinolin-5-yl)dimethylphosphine oxide] showed an IC50 in experiment [1] of 328 nM. The GI50 in experiment [2] turned out to be 3 nM; in experiment [3] it was 54 nM.

For `COc1cc(N2CCC(N3CCN(C)CC3)CC2)c(-c2ccn(C)c2)cc1Nc1ncc(Br)c(Nc2ccc3nc(C4CC4)ccc3c2P(C)(C)=O)n1` [Compound J-064, (6-((5-Bromo-2-((2-methoxy-5-(1-methyl-1H-pyrrol-3-yl)-4-(4-(4-methylpiperazine-1-yl)piperidin-1-yl)phenyl)amino)pyrimidin-4-yl)amino)-2-cyclopropylquinolin-5-yl)dimethylphosphine oxide], 128 nM corresponded to half-maximal inhibition in experiment [1] (IC50). For the same compound, the results for the GI50 in experiment [2] and in experiment [3] were 1.1 nM and 14.6 nM, respectively.

In experiment [1], `COc1cc(NCC2CCOCC2)c(-c2cnn(C)c2)cc1Nc1ncc(Br)c(Nc2ccc3nc(C4CC4)ccc3c2P(C)(C)=O)n1` [Compound J-053, (6-((5-Bromo-2-((2-methoxy-5-(1-methyl-1H-pyrazol-4-yl)-4-(((tetrahydro-2H-pyran-4-yl)methyl)amino)phenyl)amino)pyrimidin-4-yl)amino)-2-cyclopropylquinolin-5-yl)dimethylphosphine oxide] gave an IC50 of 753 nM. For the same compound, the GI50 in experiment [2] worked out at 3.9 nM; in experiment [3], 54 nM.

In experiment [1], `COc1cc(N2CCN(c3ccncc3)CC2)c(-c2cnn(C)n2)cc1Nc1ncc(Br)c(Nc2ccc3nc(C4CC4)ccc3c2P(C)(C)=O)n1` [Compound J-047, (6-((5-Bromo-2-((2-methoxy-5-(2-methyl-2H-1,2,3-triazol-4-yl)-4-(4-(pyridin-4-yl)piperazin-1-yl)phenyl)amino)pyrimidin-4-yl)amino)-2-cyclopropylquinolin-5-yl)dimethylphosphine oxide] displayed an IC50 of 176 nM. In addition, the GI50 was found to be 0.5 nM in experiment [2] and 21 nM in experiment [3].

With `COc1cc(N2CCN(C)CC2)c(-c2cnn(C)c2)cc1Nc1ncc(Br)c(Nc2ccc3nc(C4CC4)ccc3c2P(C)(C)=O)n1` [Compound J-054, (6-((5-Bromo-2-((2-methoxy-5-(1-methyl-1H-pyrazol-4-yl)-4-(4-methylpiperazin-1-yl)phenyl)amino)pyrimidin-4-yl)amino)-2-cyclopropylquinolin-5-yl)dimethylphosphine oxide], it took 143 nM to reach half-maximal inhibition in experiment [1] (IC50). Moreover, the GI50 in experiment [2] was found to be 0.8 nM; in experiment [3], 15.8 nM.

Take `COc1cc(N2CCN(C3CCN(C)CC3)CC2)c(-c2cnn(C)c2)cc1Nc1ncc(Br)c(Nc2ccc3nc(C4CC4)ccc3c2P(C)(C)=O)n1` [Compound J-066, (6-((5-Bromo-2-((2-methoxy-5-(1-methyl-1H-pyrazol-4-yl)-4-(4-(1-methylpiperidine-4-yl)piperazin-1-yl)phenyl)amino)pyrimidin-4-yl)amino)-2-cyclopropylquinolin-5-yl)dimethylphosphine oxide]: 259 nM corresponded to half-maximal inhibition in experiment [1] (IC50). Moreover, the values for the GI50 in experiment [2] and in experiment [3] were 4.4 nM and 77.9 nM, respectively.

The compound `COc1cc(N2CCN(c3cccc(=O)n3C)CC2)c(-c2cnn(C)c2)cc1Nc1ncc(Br)c(Nc2ccc3nc(C4CC4)ccc3c2P(C)(C)=O)n1` [Compound J-050, 6-(4-(4-((5-Bromo-4-((2-cyclopropyl-5-(dimethylphosphoryl)quinolin-6-yl)amino)pyrimidin-2-yl)amino)-5-methoxy-2-(1-methyl-1H-pyrazol-4-yl)phenyl)piperazin-1-yl)-1-methylpyridin-2(1H)-one] came in with an IC50 in experiment [1] of 861 nM. Moreover, the GI50 turned out to be 1.8 nM in experiment [2] and 42.2 nM in experiment [3].

As for `COc1cc(Nc2ncc(Br)c(Nc3ccc4nc(C5CC5)ccc4c3P(C)(C)=O)n2)c(C)cc1N1CCC(OC)CC1` [Compound J-033, (6-((5-Bromo-2-((5-methoxy-4-(4-methoxypiperidin-1-yl)-2-methylphenyl)amino)pyrimidin-4-yl)amino)-2-cyclopropylquinolin-5-yl)dimethylphosphine oxide], the half-maximal inhibitory concentration (IC50) in experiment [1] is > 10000 nM. Further, the GI50 in experiment [2] is 12.9 nM; in experiment [3], 611 nM.

Turning to `COc1cc(N2CCC(N3CCN(C)CC3)CC2)c(-c2cnn(C)n2)cc1Nc1ncc(Br)c(Nc2ccc3nc(C4CC4)ccc3c2P(C)(C)=O)n1` [Compound J-046, (6-((5-Bromo-2-((2-methoxy-5-(2-methyl-2H-1,2,3-triazol-4-yl)-4-(4-(4-methylpiperazin-1-yl)piperidin-1-yl)phenyl)amino)pyrimidin-4-yl)amino)-2-cyclopropylquinolin-5-yl)dimethylphosphine oxide], the half-maximal inhibitory concentration (IC50) in experiment [1] was 475 nM. Further, the GI50 in experiment [2] worked out at 1.2 nM; in experiment [3], 117 nM.

In turn, `COc1cncc(N2CCN(c3cc(OC)c(Nc4ncc(Br)c(Nc5ccc6nc(C7CC7)ccc6c5P(C)(C)=O)n4)cc3-c3cnn(C)c3)CC2)n1` [Compound J-049, (6-((5-Bromo-2-((2-methoxy-4-(4-(6-methoxypyrazin-2-yl)piperazin-1-yl)-5-(1-methyl-1H-pyrazol-4-yl)phenyl)amino)pyrimidin-4-yl)amino)-2-cyclopropylquinolin-5-yl)dimethylphosphine oxide] showed an IC50 in experiment [1] of 2300 nM. For the same compound, the GI50 in experiment [2] worked out at 8.5 nM; in experiment [3] it was 109 nM.

In turn, `COc1cc(N2CCN(c3ccncn3)CC2)c(-c2cnn(C)c2)cc1Nc1ncc(Br)c(Nc2ccc3nc(C4CC4)ccc3c2P(C)(C)=O)n1` [Compound J-060, (6-((5-Bromo-2-((2-methoxy-5-(1-methyl-1H-pyrazol-4-yl)-4-(4-(pyrimidin-4-yl)piperazin-1-yl)phenyl)amino)pyrimidin-4-yl)amino)-2-cyclopropylquinolin-5-yl)dimethylphosphine oxide] yielded an IC50 in experiment [1] of 366 nM. Moreover, the results for the GI50 in experiment [2] and in experiment [3] were 2.3 nM and 54 nM, respectively.

In experiment [1], `COc1cc(N2CCN(c3nccs3)CC2)c(-c2cnn(C)c2)cc1Nc1ncc(Br)c(Nc2ccc3nc(C4CC4)ccc3c2P(C)(C)=O)n1` [Compound J-048, (6-((5-Bromo-2-((2-methoxy-5-(1-methyl-1H-pyrazol-4-yl)-4-(4-(thiazol-2-yl)piperazin-1-yl)phenyl)amino)pyrimidin-4-yl)amino)-2-cyclopropylquinolin-5-yl)dimethylphosphine oxide] registered an IC50 of 1100 nM. For the same compound, the GI50 amounted to 7.6 nM in experiment [2] and 52 nM in experiment [3].

In experiment [1], `COc1cc(N2CCC(N3CCN(C)CC3)CC2)c(-c2cnn(C)c2)cc1Nc1ncc(Br)c(Nc2ccc3nc(C4CC4)ccc3c2P(C)(C)=O)n1` [Compound J-068, (6-((5-Bromo-2-((2-methoxy-5-(1-methyl-1H-pyrazol-4-yl)-4-(4-(4-methylpiperazine-1-yl)piperidin-1-yl)phenyl)amino)pyrimidin-4-yl)amino)-2-cyclopropylquinolin-5-yl)dimethylphosphine oxide] had an IC50 of 201 nM. Moreover, the GI50 in experiment [2] amounted to 1 nM; in experiment [3] it was 33.2 nM.

Compound `COc1cc(N2CCC(N3CCN(C)CC3)CC2)c(-c2cnn(C)c2)cc1Nc1ncc(F)c(Nc2ccc3nc(C4CC4)ccc3c2P(C)(C)=O)n1` [Compound J-065] came in with a concentration for half-maximal inhibition (IC50) in experiment [1] of 425 nM. Besides, the GI50 in experiment [2] stood at 13 nM; in experiment [3], 73 nM.

As for `COc1cc(N2CCN(C3CCCC3)CC2)c(-c2cnn(C)c2)cc1Nc1ncc(Br)c(Nc2ccc3nc(C4CC4)ccc3c2P(C)(C)=O)n1` [Compound J-055, (6-((5-Bromo-2-((4-(4-cyclopentylpiperazin-1-yl)-2-methoxy-5-(1-methyl-1H-pyrazol-4-yl)phenyl)amino)pyrimidin-4-yl)amino)-2-cyclopropylquinolin-5-yl)dimethylphosphine oxide], the GI50 stood at 12.4 nM in experiment [2] and 79 nM in experiment [3].
